Among the test systems are A549 NSCLC; EKVX NSCLC; HT29 colon; NCI-H460 lung; OVCAR-5 ovarian; OVCAR-8 ovarian; SF-295 CNS; SK-MEL-5 melanoma; SN12C renal; UACC-257 melanoma.
Assay in all cases: NCI tumour cell line growth inhibition, 48 h

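96-well plates; 48 h exposure; 5 concentrations. Endpoints by linear interpolation between flanking doses. Not reached: highest tested concentration assigned. TGI is the concentration that stops growth completely.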

On to `CCOC(=O)c1cc2c3c(c(C(C)=O)c(OC)c2[nH]1)N(C(=O)CC)CC3`, for which the TGI with A549 NSCLC was found to be 38.7 µM; in the experiment with EKVX NSCLC it was 30.6 µM; in the experiment with HT29 colon, 30.5 µM; in the experiment with NCI-H460 lung it was 45.3 µM; in the experiment on OVCAR-5 ovarian, 89.5 µM; in the experiment on OVCAR-8 ovarian, 46.9 µM. Further, the TGI turned out to be 39.1 µM with SF-295 CNS, 24.5 µM with SK-MEL-5 melanoma, 42.9 µM in the experiment on SN12C renal and 49.4 µM in the experiment on UACC-257 melanoma.
Turning to `CCCC1=C(OC)C(=O)c2c(C)cc(Cl)nc2C1=O`, the TGI in the experiment with A549 NSCLC came to 26.9 µM; in the experiment with EKVX NSCLC, 20.7 µM; in the experiment on HT29 colon, 8.45 µM; with NCI-H460 lung it was 26.6 µM; in the experiment on OVCAR-5 ovarian, 29.1 µM; in the experiment with OVCAR-8 ovarian it was 23.7 µM. The TGI is 31.9 µM with SF-295 CNS, 16.7 µM with SK-MEL-5 melanoma, 9.62 µM in the experiment on SN12C renal and 19.7 µM in the experiment with UACC-257 melanoma.
For the molecule `Cn1c2ccccc2n2c3ncccc3c(=O)cc12`, the TGI with A549 NSCLC, in the experiment with EKVX NSCLC, in the experiment on HT29 colon, in the experiment with NCI-H460 lung, in the experiment with OVCAR-5 ovarian and in the experiment with OVCAR-8 ovarian was over 100 µM in each case. Besides, the TGI in the experiment on SF-295 CNS, in the experiment on SK-MEL-5 melanoma, with SN12C renal and in the experiment with UACC-257 melanoma was over 100 µM in each case.
On to `O=C1C=CC2(O[C@H](C3CCCCC3)[C@@H](C3CCCCC3)O2)C(SC(=O)c2ccccc2)C1` (stereo not given in full), for which the TGI with A549 NSCLC was found to be 45.8 µM; with EKVX NSCLC it was 12.7 µM; with HT29 colon it was 3.85 µM; in the experiment with NCI-H460 lung, 17.6 µM; in the experiment on OVCAR-5 ovarian, 6.32 µM; in the experiment with OVCAR-8 ovarian, 13.9 µM. In addition, the TGI in the experiment with SF-295 CNS is 14.5 µM; in the experiment with SK-MEL-5 melanoma it was 5.53 µM; in the experiment with SN12C renal it was 6.58 µM; with UACC-257 melanoma, 16.2 µM.
For `C=C(CN(CC)CC)C1(c2ccccc2)CC2(CCCC2)C(=O)O1` (stereo not given), the TGI in the experiment with A549 NSCLC is over 100 µM; with EKVX NSCLC, over 100 µM; in the experiment on HT29 colon, 77.9 µM; in the experiment on NCI-H460 lung, over 100 µM; in the experiment on OVCAR-5 ovarian, over 100 µM; in the experiment on OVCAR-8 ovarian it was over 100 µM. Also, the TGI in the experiment on SF-295 CNS is over 100 µM; in the experiment with SK-MEL-5 melanoma it was over 100 µM; in the experiment with SN12C renal it was over 100 µM; in the experiment with UACC-257 melanoma, 98.9 µM.
Consider `Cc1cc2nc3ccccc3n2c2ccccc12`, for which the TGI in the experiment on A549 NSCLC, with EKVX NSCLC, with HT29 colon, with NCI-H460 lung, with OVCAR-5 ovarian and in the experiment on OVCAR-8 ovarian was over 10 µM throughout. For the same molecule, the TGI with SF-295 CNS, in the experiment with SK-MEL-5 melanoma, in the experiment on SN12C renal and in the experiment on UACC-257 melanoma was over 10 µM each time.
Take `CC(c1ccccc1)n1cncc1C(=O)NN1CCN(C)CC1` (stereo not given): the TGI in the experiment on A549 NSCLC, in the experiment on EKVX NSCLC, with HT29 colon, with NCI-H460 lung, in the experiment with OVCAR-5 ovarian and in the experiment with OVCAR-8 ovarian was over 10 µM in each case. Also, the TGI in the experiment on SF-295 CNS, in the experiment with SK-MEL-5 melanoma, with SN12C renal and with UACC-257 melanoma was over 10 µM throughout.
As for `Cc1ccc(N2C(=O)C3CSCN3C2=O)cc1` (stereo not given), the TGI in the experiment with A549 NSCLC, in the experiment with EKVX NSCLC, with HT29 colon, in the experiment on NCI-H460 lung, in the experiment on OVCAR-5 ovarian and in the experiment on OVCAR-8 ovarian was over 100 µM throughout. Further, the TGI in the experiment on SF-295 CNS, in the experiment on SK-MEL-5 melanoma, with SN12C renal and with UACC-257 melanoma was over 100 µM in each case.
On to `COc1ccc(OC)c2c(C)ccnc12`, for which the TGI is 97.7 µM with A549 NSCLC; over 100 µM in the experiment with EKVX NSCLC; over 100 µM with HT29 colon; over 100 µM in the experiment with NCI-H460 lung; over 100 µM with OVCAR-5 ovarian; over 79.2 µM with OVCAR-8 ovarian. The TGI in the experiment on SF-295 CNS is 95.3 µM; in the experiment on SK-MEL-5 melanoma, over 84.4 µM; in the experiment with SN12C renal it was over 100 µM; with UACC-257 melanoma, over 92.5 µM.
Turning to `C=CC(C)(C)/C=C/c1ccc(O)cc1`, the TGI with A549 NSCLC, in the experiment on EKVX NSCLC, with HT29 colon, in the experiment with NCI-H460 lung, with OVCAR-5 ovarian and with OVCAR-8 ovarian was over 100 µM each time. Besides, the TGI in the experiment on SF-295 CNS, in the experiment on SK-MEL-5 melanoma, with SN12C renal and in the experiment with UACC-257 melanoma was over 100 µM in each case.
In the case of `Oc1ccc(Cl)cc1-c1cc(-c2ccccc2)nc(=S)[nH]1`, the TGI in the experiment with A549 NSCLC, with EKVX NSCLC, in the experiment on HT29 colon, with NCI-H460 lung, with OVCAR-5 ovarian and with OVCAR-8 ovarian was over 100 µM in each case. The TGI with SF-295 CNS, with SK-MEL-5 melanoma, in the experiment with SN12C renal and in the experiment with UACC-257 melanoma was over 100 µM in each case.
`CC(CCc1nc2ccccc2s1)(c1ccc(O)cc1)c1ccc(O)cc1`: the TGI in the experiment on A549 NSCLC came to 38.2 µM; in the experiment with EKVX NSCLC, 32.3 µM; with HT29 colon, 38.4 µM; in the experiment on NCI-H460 lung, 30 µM; with OVCAR-5 ovarian, 33.1 µM; in the experiment with OVCAR-8 ovarian, 39.6 µM. The TGI in the experiment on SF-295 CNS came out at 28.9 µM; in the experiment on SK-MEL-5 melanoma, 33.1 µM; in the experiment with SN12C renal, 33.6 µM; with UACC-257 melanoma, 28.7 µM.
Consider `Oc1ccc2ccccc2c1OCc1nnc(CCCCCCCCc2nnc(COc3c(O)ccc4ccccc34)n2Nc2ccccc2)n1Nc1ccccc1`, for which the TGI with A549 NSCLC was over 100 µM; with EKVX NSCLC it was over 76.8 µM; with HT29 colon it was 36.3 µM; in the experiment on NCI-H460 lung it was over 100 µM; in the experiment with OVCAR-5 ovarian, over 95.9 µM; in the experiment with OVCAR-8 ovarian, 63.1 µM. Also, the TGI in the experiment with SF-295 CNS was over 100 µM; in the experiment on SK-MEL-5 melanoma it was 2.37 µM; in the experiment on SN12C renal, over 100 µM; in the experiment on UACC-257 melanoma it was over 80 µM.

Values taken from PubChem BioAssay (NCI).
